Experimental data taken from ChEMBL document CHEMBL5096145, “Evaluation of imidazo[2,1-b]thiazole-based anticancer agents in one decade (2011-2020): Current status and future prospects” (Bioorg Med Chem, 2021).

How the values were obtained:
HT-29 = assay: Cytotoxicity against human HT-29 cells assessed as reduction in cell viability relative to control; format: functional
DU-145 [1] = assay: Potency index, ratio of sorafenib IC50 to test compound IC50 for cytotoxicity against human DU-145 cells; format: functional
DU-145 [2] = assay: Cytotoxicity against human DU-145 cells assessed as reduction in cell viability; format: functional, cell-based
A-375 [3] = assay: Antiproliferative activity against human A375 cells measured after 48 hrs by MTT assay; format: functional, cell-based; settings: A-375, 48 h
SK-MEL-28 = assay: Antiproliferative activity against human SK-MEL-28 cells measured after 48 hrs by MTT assay; format: functional, cell-based; settings: SK-MEL-28, 48 h
MDA-MB-435 = assay: Antiproliferative activity against human MDA-MB-435 cells measured after 48 hrs by MTT assay; format: functional, cell-based; settings: MDA-MB-435, 48 h
A-375 [4] = assay: Cytotoxicity against human A-375 cells by MTT assay; format: functional, cell-based
OVCAR-3 = assay: Anticancer activity against human OVCAR-3 cells incubated for 48 hrs by SRB staining assay; format: functional
UACC-62 = assay: Antiproliferative activity against human UACC-62 cells measured after 48 hrs by MTT assay; format: functional, cell-based; settings: UACC-62, 48 h
MIA PaCa-2 = assay: Antiproliferative activity against human MIAPaCa-2 cells measured after 24 to 48 hrs by SRB staining based assay; format: functional, cell-based
HCT-116 = assay: Anticancer activity against human HCT-116 cells measured after 48 hrs by MTT assay; format: functional, cell-based; settings: HCT-116, 48 h
MDA-MB-231 [5] = assay: Antiproliferative activity against human MDA-MB-231 cells measured after 48 hrs by MTT assay; format: functional, cell-based; settings: MDA-MB-231, 48 h
A549 [6] = assay: Antiproliferative activity human A549 cells; format: functional, cell-based
MCF7 [7] = assay: Antiproliferative activity human MCF7 cells; format: functional, cell-based
MDA-MB-231 [8] = assay: Antiproliferative activity human MDA-MB-231 cells; format: functional, cell-based
MCF7 [9] = assay: Antiproliferative activity against human MCF7 cells measured after 48 hrs by MTT assay; format: functional, cell-based; settings: MCF7, 48 h
HeLa [10] = assay: Antiproliferative activity against human HeLa cells measured after 48 hrs by MTT assay; format: functional, cell-based
[11] = Inhibition of tubulin polymerisation in human A549; format: cell-based
A549 [12] = assay: Inhibition of tubulin polymerisation in human A549 cells relative to control; format: cell-based; settings: dose or concentration not given here
A549 [13] = assay: Antiproliferative activity against human A549 cells incubated for 48 hrs by MTT assay; format: functional, cell-based; settings: A549, 48 h
A549 [14] = assay: Induction of cell cycle arrest in human A549 cells assessed as accumulation of cells at G2/M phase at 2 uM by flow cytometric analysis relative to control; format: functional
A549 [15] = assay: Induction of cell cycle arrest in human A549 cells assessed as accumulation of cells at G2/M phase at 1 uM by flow cytometric analysis relative to control; format: functional
A549 [16] = assay: Induction of apoptosis in human A549 cells at 1 uM measured after 48 hrs by Annexin V-FITC analysis; format: functional
A549 [17] = assay: Induction of apoptosis in human A549 cells at 2 uM measured after 48 hrs by Annexin V-FITC analysis; format: functional
HepG2 [18] = assay: Antiproliferative activity against human HepG2 cells measured after 48 hrs by MTT assay; format: functional, cell-based; settings: HepG2, 48 h
HepG2 [19] = assay: Cytotoxicity against human HepG2 cells expressing EGFR assessed as reduction in cell viability incubated for 24 hrs by MTT assay; format: functional, cell-based; settings: HepG2, 24 h
L02 = assay: Cytotoxicity against human HL7702 cells expressing EGFR assessed as reduction in cell viability incubated for 24 hrs by MTT assay; format: functional, cell-based; settings: L02, 24 h
HUVEC = assay: Cytotoxicity against HUVEC expressing EGFR assessed as reduction in cell viability incubated for 24 hrs by MTT assay; format: functional, cell-based; settings: Homo sapiens
HeLa [20] = assay: Cytotoxicity against human HeLa cells expressing EGFR assessed as reduction in cell viability incubated for 24 hrs by MTT assay; format: functional, cell-based
[21] = Cytotoxicity against human L132 cells by MTT assay; format: toxicity, cell-based
[22] = target: Serine/threonine-protein kinase B-raf (Homo sapiens, UniProt P15056, V600E); assay: Inhibition of human BRAF V600E mutant using MEK1 as substrate in presence of ATP
Ovarian cancer cell line = assay: Cytotoxicity against human ovarian cancer cell line assessed as reduction in cell viability by MTT assay relative to control; format: functional
Prostatic carcinoma cell = assay: Cytotoxicity against human prostatic carcinoma cell assessed as reduction in cell viability by MTT assay relative to control; format: functional
Leukemic tumor cell line = assay: Cytotoxicity against human leukemic tumor cell line assessed as reduction in cell viability by MTT assay relative to control; format: functional
CNS carcinoma cell = assay: Cytotoxicity against human CNS carcinoma cells assessed as reduction in cell viability by MTT assay relative to control; format: functional
Melanoma tumor cell line = assay: Cytotoxicity against human melanoma tumor cell line assessed as reduction in cell viability by MTT assay relative to control; format: functional
[23] = system: Non-small cell lung cancer cell line; assay: Cytotoxicity against human non-small cell lung cancer cell line assessed as reduction in cell viability by MTT assay relative to control; format: functional
[24] = target: Serine/threonine-protein kinase B-raf (Homo sapiens) (UniProt P15056); assay: Inhibition of wildtype BRAF (unknown origin) using MEK1 as substrate in presence of ATP relative to control; settings: concentration not given here
[25] = Cytotoxicity against human Colon carcinoma cells assessed as reduction in cell viability by MTT assay relative to control; format: functional
Breast carcinoma cell = assay: Cytotoxicity against human breast cancer cell line assessed as reduction in cell viability by MTT assay relative to control; format: functional
Renal cancer cell line = assay: Cytotoxicity against human renal cancer cell line assessed as reduction in cell viability by MTT assay relative to control; format: functional
[26] = system: Serine/threonine-protein kinase B-raf (Homo sapiens), P15056 [V600E]; assay: Inhibition of human BRAF V600E mutant using MEK1 as substrate in presence of ATP relative to control; settings: concentration not given here
Sequence of Serine/threonine-protein kinase B-raf (Homo sapiens), P15056 [V600E] (P15056 whole entry V600E): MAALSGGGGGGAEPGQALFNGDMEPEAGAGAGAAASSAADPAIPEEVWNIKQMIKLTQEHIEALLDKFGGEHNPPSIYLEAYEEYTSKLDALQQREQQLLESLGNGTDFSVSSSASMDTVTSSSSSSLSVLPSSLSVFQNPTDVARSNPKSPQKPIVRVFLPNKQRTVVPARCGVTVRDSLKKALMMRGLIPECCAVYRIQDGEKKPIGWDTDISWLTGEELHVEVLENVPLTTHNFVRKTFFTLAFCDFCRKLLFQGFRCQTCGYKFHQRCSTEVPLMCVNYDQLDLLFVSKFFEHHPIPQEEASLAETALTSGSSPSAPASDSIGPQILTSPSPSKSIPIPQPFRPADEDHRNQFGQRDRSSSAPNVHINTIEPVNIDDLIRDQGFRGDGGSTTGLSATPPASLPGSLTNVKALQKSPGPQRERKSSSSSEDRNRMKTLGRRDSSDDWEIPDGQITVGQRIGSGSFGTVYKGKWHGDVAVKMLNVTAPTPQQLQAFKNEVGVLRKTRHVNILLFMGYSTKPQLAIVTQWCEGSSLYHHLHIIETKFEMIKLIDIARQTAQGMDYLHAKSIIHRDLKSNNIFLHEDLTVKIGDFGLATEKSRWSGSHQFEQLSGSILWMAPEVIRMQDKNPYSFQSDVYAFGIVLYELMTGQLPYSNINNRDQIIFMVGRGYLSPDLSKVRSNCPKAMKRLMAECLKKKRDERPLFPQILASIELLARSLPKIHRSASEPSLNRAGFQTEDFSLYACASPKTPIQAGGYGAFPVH

Sequence of Serine/threonine-protein kinase B-raf (Homo sapiens) (P15056 whole entry): as the sequence (P15056 whole entry V600E) above, with E600V counted along it
Sequence of Serine/threonine-protein kinase B-raf (P15056 2-766 V600E limits assumed): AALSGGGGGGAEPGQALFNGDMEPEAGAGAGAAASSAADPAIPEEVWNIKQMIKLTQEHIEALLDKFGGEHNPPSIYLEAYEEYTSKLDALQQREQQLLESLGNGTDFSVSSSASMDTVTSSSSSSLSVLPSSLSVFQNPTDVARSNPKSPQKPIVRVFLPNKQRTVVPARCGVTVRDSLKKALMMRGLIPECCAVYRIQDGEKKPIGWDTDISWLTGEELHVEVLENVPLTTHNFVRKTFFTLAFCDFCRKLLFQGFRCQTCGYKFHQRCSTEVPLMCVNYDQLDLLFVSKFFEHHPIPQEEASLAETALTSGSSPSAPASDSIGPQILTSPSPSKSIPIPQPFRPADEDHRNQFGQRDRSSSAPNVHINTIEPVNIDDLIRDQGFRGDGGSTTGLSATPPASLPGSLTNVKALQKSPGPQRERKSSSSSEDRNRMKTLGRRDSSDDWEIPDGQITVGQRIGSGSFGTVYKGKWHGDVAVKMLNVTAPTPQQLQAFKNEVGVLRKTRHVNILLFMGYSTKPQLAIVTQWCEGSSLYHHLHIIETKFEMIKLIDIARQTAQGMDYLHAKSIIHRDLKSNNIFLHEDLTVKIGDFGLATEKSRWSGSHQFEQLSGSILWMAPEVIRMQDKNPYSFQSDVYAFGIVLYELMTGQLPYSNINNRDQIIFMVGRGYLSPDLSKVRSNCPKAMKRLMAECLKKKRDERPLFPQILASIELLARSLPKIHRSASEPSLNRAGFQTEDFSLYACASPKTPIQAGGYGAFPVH

Question: With `COc1ccc(C(=O)NCCNc2nccc(-c3c(-c4ccc(F)cc4)nc4sccn34)n2)cc1` as the compound, how does the “inhibition (INH)” value (HT-29) read?
Answer: 85.38%

Question: What about the “Ratio IC50” value (DU-145 [1]) of the same compound?
Answer: 3

Question: What about the IC50 (DU-145 [2]) of the same compound?
Answer: 1040 nM

Question: For `CNC(=O)c1cc(Oc2ccc(NC(=O)Nc3ccc(Cl)c(C(F)(F)F)c3)cc2)ccn1` [SORAFENIB], which IC50 (A-375 [3]) is on record?
Answer: 1950 nM

Question: What about the IC50 (SK-MEL-28) of the same compound?
Answer: 1950 nM

Question: What about the IC50 (MDA-MB-435) of the same compound?
Answer: 1950 nM

Question: What about the IC50 (A-375 [4]) of the same compound?
Answer: 10.3 µM

Question: What about the GI50 (OVCAR-3) of the same compound?
Answer: 2950 nM

Question: What about the IC50 (UACC-62) of the same compound?
Answer: 1950 nM

Question: With `COc1ccc2c(c1OCc1csc3nc(-c4cc(C)c(Br)s4)cn13)C(=O)OC2C1c2c(cc3c(c2OC)OCO3)CCN1C` (stereo unspecified) as the compound, how does the IC50 (MIA PaCa-2) read?
Answer: 3.6 µM

Question: With `C/C(=N\N=C1\S/C(=N\Nc2ccc(Br)cc2)C(=O)N1N)c1sc2nc(-c3ccc(C)cc3)cn2c1C` as the compound, how does the IC50 (HCT-116) read?
Answer: 1100 nM

Question: For `COc1cccc2c1C(=O)c1c(O)c3c(c(O)c1C2=O)C[C@@](O)(C(=O)CO)C[C@@H]3O[C@H]1C[C@H](N)[C@H](O)[C@H](C)O1` [DOXORUBICIN], which IC50 (MDA-MB-231 [5]) is on record?
Answer: 1800 nM

Question: For `CCCS(=O)(=O)Nc1ccc(F)c(C(=O)c2c[nH]c3ncc(-c4ccc(Cl)cc4)cc23)c1F` [VEMURAFENIB], which IC50 (A-375 [4]) is on record?
Answer: 5.9 µM

Question: With `O=C(/C=C\Nc1cnc2ccccc2c1)c1c(-c2ccccc2)nc2sccn12` as the compound, how does the IC50 (A549 [6]) read?
Answer: 400 nM

Question: And the IC50 (MCF7 [7])?
Answer: 4.6 µM

Question: What about the IC50 (MDA-MB-231 [8]) of the same compound?
Answer: 4.6 µM

Question: Which results are given for `O=C1Nc2ccccc2/C1=C\c1c(-c2ccc(Br)cc2)nc2scc(-c3cc4ccccc4oc3=O)n12`?
Answer: IC50 (MCF7 [9]): 10.8 µM; IC50 (HeLa [10]): 6.77 µM

Question: With `COc1ccc(-c2nc3sccn3c2-c2nc3ccc(C(F)(F)F)cc3[nH]2)cc1` as the compound, how does the IC50 [11] read?
Answer: 1680 nM

Question: What about the inhibition (A549 [12]) of the same compound?
Answer: 68.1%

Question: What about the IC50 (A549 [13]) of the same compound?
Answer: 1080 nM

Question: What about the Activity (A549 [14]) of the same compound?
Answer: 56.3%

Question: What about the Activity (A549 [15]) of the same compound?
Answer: 15.1%

Question: What about the Activity (A549 [16]) of the same compound?
Answer: 14.94%

Question: What about the Activity (A549 [17]) of the same compound?
Answer: 43.62%

Question: For `O=C1NC(=S)NC(=O)C1=Cc1c(-c2ccc(Cl)cc2)nc2scc(-c3cc4ccccc4oc3=O)n12`, which IC50 (HepG2 [18]) is on record?
Answer: 13.9 µM

Question: What about the IC50 (MCF7 [9]) of the same compound?
Answer: 17 µM

Question: And the IC50 (HeLa [10])?
Answer: 5.18 µM

Question: What does the source list for `O=C(Cc1csc2nc3ccccc3n12)Nc1ccccc1O`?
Answer: IC50 (HepG2 [19]): > 100 µM; IC50 (L02): > 100 µM; IC50 (HUVEC): > 100 µM; IC50 (HeLa [20]): 420 nM

Question: With `O=[N+]([O-])c1cccc(-c2nc3sccn3c2-c2ccnc(NCCCNS(=O)(=O)c3cccc(F)c3)n2)c1` as the compound, how does the IC50 [21] read?
Answer: 80 µM

Question: What about the IC50 [22] of the same compound?
Answer: 21 nM

Question: And the “inhibition (INH)” value (Ovarian cancer cell line)?
Answer: >80%

Question: What about the “inhibition (INH)” value (Prostatic carcinoma cell) of the same compound?
Answer: >90%

Question: And the “inhibition (INH)” value (Leukemic tumor cell line)?
Answer: >90%

Question: And the “inhibition (INH)” value (CNS carcinoma cell)?
Answer: 70%

Question: And the “inhibition (INH)” value (Melanoma tumor cell line)?
Answer: 100%

Question: And the “inhibition (INH)” value [23]?
Answer: >80%

Question: And the inhibition [24]?
Answer: 66.3%

Question: What about the “inhibition (INH)” value [25] of the same compound?
Answer: >80%

Question: What about the IC50 (A-375 [4]) of the same compound?
Answer: 2.99 µM

Question: What about the “inhibition (INH)” value (Breast carcinoma cell) of the same compound?
Answer: >80%

Question: What about the “inhibition (INH)” value (Renal cancer cell line) of the same compound?
Answer: >70%

Question: What about the inhibition [26] of the same compound?
Answer: 99.6%
